# In patent US7951560B2, “Delta 4,5 glycuronidase compositions and methods related thereto” (Massachusetts Institute of Technology, priority 2002, dated 2011):
# T1: recombinant Δ4, 5 glycuronidase (Δ4,5^Δ20) (Pedobacter heparinus, UniProt C6Y1N7)
# T1 sequence (C6Y1N7 21-402): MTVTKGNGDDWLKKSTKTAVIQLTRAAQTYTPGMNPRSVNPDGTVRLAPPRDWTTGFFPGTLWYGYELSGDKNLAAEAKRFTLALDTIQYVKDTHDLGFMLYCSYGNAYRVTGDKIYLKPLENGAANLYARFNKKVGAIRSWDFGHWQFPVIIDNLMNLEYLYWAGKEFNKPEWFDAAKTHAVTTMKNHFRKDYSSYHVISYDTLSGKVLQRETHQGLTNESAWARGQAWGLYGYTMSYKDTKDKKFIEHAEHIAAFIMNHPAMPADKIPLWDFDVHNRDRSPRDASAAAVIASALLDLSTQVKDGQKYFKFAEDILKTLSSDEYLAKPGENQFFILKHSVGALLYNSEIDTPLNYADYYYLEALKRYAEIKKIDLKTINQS
# What was measured:
# [1] = test system: Δ4, 5 glycuronidase; assay: Extended timecourse hydrolysis of non-heparin disaccharides; format: biochemical, F. heparinum; details: after approximately 18 hours, considerably higher enzyme concentrations
# Description: None of the non-heparin disaccharides were hydrolyzed under the conditions for measuring substrate kinetics. […] At the same time, these disaccharides were slowly hydrolyzed to varying degrees when the enzyme reactions were conducted over a much longer timecourse (>12 hours) and at considerably higher enzyme concentrations. After approximately 18 hours, greater than 80% of monosulfated chondroitin disaccharide (ΔUGalNac6S) was hydrolyzed, whereas the non-sulfated chondroitin (ΔUGalNAc) and the hyaluronan disaccharide (ΔUH) were still present at approximately 40% and 65%, respectively. The importance of the linkage position is, therefore, not absolute. The apparently positive effect of chondroitin 6-O-sulfation within the galactosamine is consistent with our results for the heparin substrates and provides further evidence for the influence of this position in dictating substrate specificity.
# [2] = biological target: T1, recombinant Δ4, 5 glycuronidase (Δ4,5^Δ20); assay: Kinetic parameters of Δ4, 5 glycuronidase for disaccharide substrates (loss of absorbance at 232 nm, Michaelis-Menten fit); format: biochemical, F. heparinum; details: conditions for measuring substrate kinetics
# Description: Assay for enzyme activity and determination of kinetic parameters. Standard reactions were carried out at 30° C. and included 100 mM sodium phosphate buffer, pH 6.4, 50 mM NaCl, 500 μM disaccharide substrate and 200 nM enzyme in a 100 μl reaction volume. Hydrolysis of heparin disaccharides was determined spectrophotometrically by measuring the loss of the Δ4, 5 chromophore measured at 232 nm Substrate hydrolysis was calculated using the following molar extinction coefficients empirically determined for each disaccharide substrate: ΔUHNAc, ε232=4,524; ΔUHNAc6S, ε232=4,300; ΔUHNS, ε232=6,600; ΔUHNS,6S, ε232=6,075; ΔUHNH26S, ε232=4,826; ΔU2SHNS, ε232=4,433. Initial rates (Vo) were extrapolated from linear activities representing <10% substrate turnover and fit to pseudo first-order kinetics. For kinetic experiments, disaccharide concentration for each respective substrate was varied from 48 to 400 μM concentrations. Km and kcat values were extrapolated from Vo vs. [S] curves fit to the Michaelis Menten equation by a non-linear, least squares regression.
# The specificity of the Δ4, 5 glycuronidase acting on various glycosaminoglycan disaccharide substrates was investigated. The various substrates examined included both heparin and chondroitin disaccharides as well as an hyaluronadate. In particular, we considered the possibility of any structural discriminations pertaining to glycosidic linkage position (1→4 vs. 1→3) and relative sulfation state within the disaccharide. For each substrate, kinetic parameters were determined based on substrate saturation profiles that fit Michaelis-Menten assumptions (FIG. 8).
# [3] = test system: Δ4, 5 glycuronidase; assay: Detection of Δ4, 5 glycuronidase activity by capillary electrophoresis on heparinase-digested heparin; format: biochemical, F. heparinum
# Description: Detection of Δ4, 5 glycuronidase activity by capillary electrophoresis. 200 μg of heparin (Celsus Laboratories) was subject to exhaustive heparinase digestion as described [Venkataraman, G., Shriver, Z., Raman, R., and Sasisekharan, R., 1999, Science 286, 537-42] with certain modifications that included a 50 mM PIPES buffer, pH 6.5 with 100 mM NaCl in a 100 μl reaction volume. Following heparinase treatment, 25 picomoles of Δ4, 5 glycuronidase was added to one-half of the original reaction (pre-equilibrated at 30° C.). 20 μl aliquots were removed at 1 minute and 30 minutes and activity quenched by heating at 95° C. for 10 minutes. 20 μl of the minus Δ4, 5 control (also heated for 10 minutes) was used as the 0 time point. Disaccharide products were resolved by capillary electrophoresis run for 25 minutes under positive polarity mode as previously described [Rhomberg, A. J., Ernst, S., Sasisekharan, R., and Biemann, K., 1998, Proc Natl Acad Sci USA 95, 4176-81].
# In this manner, the Δ4, 5 should be very useful in assessing the composition of disaccharides resulting from prior heparinase treatment of heparin/heparan sulfate. For this particular experiment, we pre-treated 200 μg of heparin with a heparinase cocktail. This exhaustive digestion was then directly followed by a relatively short (1 minute) or long (30 minute) Δ4, 5 glycuronidase treatment carried out under optimal reaction conditions. The disaccharide products were then resolved by capillary electrophoresis. The electrophoretic mobility profile for the Δ4, 5 treated saccharides were then directly compared to the untreated control (i.e., heparinase treatment only) run under identical conditions (FIG. 9). 7 disaccharide peaks were present in the capillary electrophoretogram corresponding to the heparinase only control (A.). A structural assignment for each one of these peaks was made based on previously established compositional analyses. […] Predictably, the relative amplitude and area of these peaks remained the same, over the entire timecourse of the Δ4, 5 preincubation. This unchanging result extended to 18 hours. On the other hand, peaks corresponding to disaccharides lacking the 2-O sulfate were eliminated.
# [4] = Pilot expression of the full-length enzyme in E. coli: solubility and activity
# Description: Using PCR, we cloned from the F. heparinum genome both the full-length enzyme and the “mature” enzyme lacking the N-terminal 20 amino acid signal sequence (Δ4,5^Δ20) into a T7-based expression plasmid. Cloning into pET28a permitted the expression of the glycuronidase as an N-terminal 6× His-tag fusion protein. Pilot expression studies focused on the full-length enzyme. In these initial experiments, we examined several different induction conditions such as temperature, time and length of induction, and even IPTG concentrations.
molecule,measurement,setting,value
CC(=O)N[C@H]1C(O)O[C@H](COS(=O)(=O)[O-])[C@H](O)[C@@H]1OC1OC(C(=O)[O-])=C[C@H](O)[C@H]1O.[Na+].[Na+] (stereo partly shown) [ΔUGalNac6S],disaccharide hydrolyzed,[1],greater than 80%
"N[C@H]1C(O)O[C@H](COS(=O)(=O)O)[C@@H](O[C@@H]2OC(C(=O)O)=C[C@H](O)[C@H]2O)[C@@H]1O (stereo partly shown) [ΔUHNH2, 6S]",substrate status / substrate preference,[2],less good as substrates
CC(=O)N[C@H]1C(O)O[C@H](CO)[C@@H](O[C@@H]2OC(C(=O)O)=C[C@H](O)[C@H]2O)[C@@H]1O (stereo partly shown) [ΔUHNac],substrate status / substrate preference,[2],best substrates
CC(=O)NC1C(O)OC(CO)C(O)C1OC1OC(C(=O)O)=CC(O)C1O (stereo not shown) [ΔUH],disaccharide still present,[1],~65%
O=C(O)C1=C[C@H](O)[C@@H](O)[C@H](O[C@H]2[C@H](O)[C@@H](NS(=O)(=O)O)C(O)O[C@@H]2CO)O1 (stereo partly shown) [ΔUHNS],substrate status / substrate preference,[2],less good as substrates
same,"hydrolysis by 30 minutes Δ4, 5 treatment",[3],completely depleted
same,"hydrolyzed after 1 minute Δ4, 5 treatment",[3],~50%
"O=C(O)C1=C[C@H](O)[C@@H](O)[C@H](O[C@H]2[C@H](O)[C@@H](NS(=O)(=O)O)C(O)O[C@@H]2COS(=O)(=O)O)O1 (stereo partly shown) [ΔUHNS, 6S]",substrate status / substrate preference,[2],roughly in the middle
same,"hydrolysis by 30 minutes Δ4, 5 treatment",[3],completely depleted
same,"hydrolyzed after 1 minute Δ4, 5 treatment",[3],approximately 75%
O=C(O)C1=C[C@H](O)[C@@H](OS(=O)(=O)O)[C@H](O[C@H]2[C@H](O)[C@@H](NS(=O)(=O)O)[C@@H](O)O[C@@H]2CO)O1 [ΔU2SHNS],substrate status / substrate preference,[2],not a substrate
"CC(=O)N[C@H]1C(O)O[C@H](COS(=O)(=O)O)[C@@H](O[C@@H]2OC(C(=O)O)=C[C@H](O)[C@H]2O)[C@@H]1O (stereo partly shown) [ΔUHNAc, 6S]",substrate status / substrate preference,[2],best substrates
same,"hydrolysis after one minute Δ4, 5 treatment (in words)",[3],essentially hydrolyzed
CC(=O)NC1C(O)OC(CO)C(O)C1OC1OC(C(=O)O)=CC(O)C1O (stereo not shown) [ΔUGalNAc],disaccharide still present,[1],approximately 40%
"full-length enzyme: full-length 402 amino acid Δ4, 5 glycuronidase, SEQ ID NO:3, expressed as N-terminal 6× His-tag fusion (protein, listed as Flavobacterium heparinum, N-terminal 6xHis tag) MKSLLSAFVATIALIGSANGMTVTKGNGDDWLKKSTKTAVIQLTRAAQTYTPGMNPRSVNPDGTVRLAPPRDWTTGFFPGTLWYGYELSGDKNLAAEAKRFTLALDTIQYVKDTHDLGFMLYCSYGNAYRVTGDKIYLKPLENGAANLYARFNKKVGAIRSWDFGHWQFPVIIDNLMNLEYLYWAGKEFNKPEWFDAAKTHAVTTMKNHFRKDYSSYHVISYDTLSGKVLQRETHQGLTNESAWARGQAWGLYGYTMSYKDTKDKKFIEHAEHIAAFIMNHPAMPADKIPLWDFDVHNRDRSPRDASAAAVIASALLDLSTQVKDGQKYFKFAEDILKTLSSDEYLAKPGENQFFILKHSVGALLYNSEIDTPLNYADYYYLEALKRYAEIKKIDLKTINQS",solubility on recombinant expression,"[4]; N-terminal 6× His-tag fusion, all induction conditions examined",nearly exclusively as an insoluble fraction
same,"activity of partially purified, solubilised enzyme","[4]; solubilised with detergents (e.g., CHAPS), salt, glycerol",largely inactive
